Converted amounts (≈) assume the structure as drawn.
How the values were obtained:
Solubility in water = assay type: physicochemical
[1] = Solubility in DMDA / Met10u high-KB amide surfactant; assay type: physicochemical
[2] = Solubility in mineral oil; assay type: physicochemical; conditions: oil or lipid, under certain conditions
[3] = Thermal stability (decarboxylation of CBDA to CBD); assay type: physicochemical; conditions: saturated solution of CBDA in Met10u
[4] = cited from earlier work

Compound: C=C(C)[C@@H]1CCC(C)=C[C@H]1c1c(O)cc(CCCCC)c(C(=O)O)c1O [CBDA, Δ(9)-tetrahydrocannabidiolic acid]
- solubility of CBDA in water (Solubility in water; temperature of 4 degrees Celsius or lower, pH 4 or lower): below 20 micrograms per milliliter
- solubility of CBDA in water (Solubility in water; temperature of 70 degrees Celsius or higher, pH of 10 or higher): over 20 milligrams per milliliter
- solubility ([1]; DMDA (high-KB amide surfactant), organic solvent or mixture, at 70 C): > 1000 mg/mL
- solubility of CBDA in Met10u ([1]; at 0 C): 1%
- solubility of CBDA in Met10u ([1]; at 60 C): 100%
- solubility [2]: ~6000 µg/mL (≈ 16.7 mM)
- temperature at which CBDA begins to lose its carboxylic moiety (decarboxylation) and become CBD [3]: at least 130 C

Compound: CCCCC/C=C\C/C=C\CCCCCCCC(=O)O [Linoleic acid, linoleic acid]
- pKa [4]: 9.24

— patent US20240316132A1 (priority 2023, published 2024)
